The results in this text go back to PMC12621043, “Un-LOK-ing a New Approach for Conformational Selective Targeting of STK10 (LOK)” (ACS Medicinal Chemistry Letters, 2025).

Common to all, as to assay: DSF Tm panel
Holding throughout (format): binding
Holding throughout (conditions): 10 μM compound

In one test the target is T1, STK3 (STK3A) (Homo sapiens, UniProt Q13188).
T1 construct: purchased in-house DSF kinase panel (SGC-style construct names; the trailing letter is the construct ID)
T1 sequence (Q13188 16-313): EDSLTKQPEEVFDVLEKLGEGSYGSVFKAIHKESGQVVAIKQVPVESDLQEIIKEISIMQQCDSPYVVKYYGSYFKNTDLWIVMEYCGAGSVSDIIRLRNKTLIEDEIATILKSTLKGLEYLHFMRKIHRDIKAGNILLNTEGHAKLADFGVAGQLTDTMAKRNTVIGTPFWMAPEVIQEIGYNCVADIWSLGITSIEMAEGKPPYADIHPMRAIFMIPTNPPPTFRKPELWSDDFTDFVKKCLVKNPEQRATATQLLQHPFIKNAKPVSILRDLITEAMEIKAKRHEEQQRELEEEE

For the next test, the target named is T2, CAMK2BA (Homo sapiens, UniProt Q13554).
T2 construct: purchased in-house DSF kinase panel (SGC-style construct names; the trailing letter is the construct ID)
T2 sequence (Q13554 11-303): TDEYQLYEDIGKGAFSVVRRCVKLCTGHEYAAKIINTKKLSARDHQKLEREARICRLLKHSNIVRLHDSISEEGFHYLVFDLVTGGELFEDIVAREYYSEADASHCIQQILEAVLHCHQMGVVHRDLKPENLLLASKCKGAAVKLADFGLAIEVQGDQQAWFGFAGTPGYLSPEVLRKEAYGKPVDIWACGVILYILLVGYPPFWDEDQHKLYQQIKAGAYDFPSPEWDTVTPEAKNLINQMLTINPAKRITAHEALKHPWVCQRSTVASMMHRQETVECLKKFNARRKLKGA

A further test has as its target T3, STK17BA (Homo sapiens, UniProt O94768).
T3 construct: purchased in-house DSF kinase panel (SGC-style construct names; the trailing letter is the construct ID)
T3 sequence (O94768 25-329): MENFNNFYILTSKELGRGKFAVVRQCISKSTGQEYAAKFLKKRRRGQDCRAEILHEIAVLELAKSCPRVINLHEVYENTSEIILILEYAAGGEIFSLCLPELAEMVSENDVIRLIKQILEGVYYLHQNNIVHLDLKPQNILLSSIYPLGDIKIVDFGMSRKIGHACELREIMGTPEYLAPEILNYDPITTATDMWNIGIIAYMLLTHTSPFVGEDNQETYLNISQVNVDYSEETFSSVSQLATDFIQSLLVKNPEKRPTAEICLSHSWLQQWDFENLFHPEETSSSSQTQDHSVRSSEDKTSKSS

Another test deals with T4, DAPK1 (DAPK1A) (Homo sapiens, UniProt P53355).
T4 construct: purchased in-house DSF kinase panel (SGC-style construct names; the trailing letter is the construct ID)
T4 sequence (P53355 1-285): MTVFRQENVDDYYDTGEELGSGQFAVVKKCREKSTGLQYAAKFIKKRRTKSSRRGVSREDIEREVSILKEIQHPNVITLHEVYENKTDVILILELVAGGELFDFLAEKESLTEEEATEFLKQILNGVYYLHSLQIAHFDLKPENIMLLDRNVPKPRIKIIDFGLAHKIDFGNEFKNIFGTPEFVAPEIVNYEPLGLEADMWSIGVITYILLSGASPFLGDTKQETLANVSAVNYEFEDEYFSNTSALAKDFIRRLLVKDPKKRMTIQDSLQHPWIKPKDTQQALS

A further test addresses T5, EPHB3A (Homo sapiens, UniProt P54753).
T5 construct: purchased in-house DSF kinase panel (SGC-style construct names; the trailing letter is the construct ID)
T5 sequence (P54753 34-998): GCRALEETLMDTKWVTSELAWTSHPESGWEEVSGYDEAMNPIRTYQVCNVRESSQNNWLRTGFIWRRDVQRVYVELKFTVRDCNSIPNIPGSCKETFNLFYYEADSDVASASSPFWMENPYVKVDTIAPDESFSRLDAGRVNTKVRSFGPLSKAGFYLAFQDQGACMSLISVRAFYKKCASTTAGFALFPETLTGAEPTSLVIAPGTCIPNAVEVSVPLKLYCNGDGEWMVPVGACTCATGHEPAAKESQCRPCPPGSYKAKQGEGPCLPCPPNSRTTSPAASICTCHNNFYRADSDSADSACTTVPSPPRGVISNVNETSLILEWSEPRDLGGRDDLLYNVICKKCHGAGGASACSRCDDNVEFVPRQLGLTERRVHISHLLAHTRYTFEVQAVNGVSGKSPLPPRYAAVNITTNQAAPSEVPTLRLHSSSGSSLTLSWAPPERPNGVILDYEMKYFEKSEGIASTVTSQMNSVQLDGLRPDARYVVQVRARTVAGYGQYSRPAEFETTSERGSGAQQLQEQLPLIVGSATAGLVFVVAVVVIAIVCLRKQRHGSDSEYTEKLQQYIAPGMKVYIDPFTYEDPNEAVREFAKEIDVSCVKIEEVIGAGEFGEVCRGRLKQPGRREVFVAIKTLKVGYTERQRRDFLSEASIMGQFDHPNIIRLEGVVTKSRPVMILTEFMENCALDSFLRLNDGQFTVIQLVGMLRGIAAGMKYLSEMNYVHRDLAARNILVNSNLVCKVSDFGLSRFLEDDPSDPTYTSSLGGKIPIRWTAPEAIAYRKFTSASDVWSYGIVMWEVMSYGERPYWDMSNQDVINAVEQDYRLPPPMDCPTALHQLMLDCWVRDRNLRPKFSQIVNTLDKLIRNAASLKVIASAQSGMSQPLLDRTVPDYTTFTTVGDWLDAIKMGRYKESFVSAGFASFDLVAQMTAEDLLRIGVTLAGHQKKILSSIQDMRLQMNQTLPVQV

The next test concerns the target T6, GSG2A (Homo sapiens, UniProt Q8TF76).
T6 construct: purchased in-house DSF kinase panel (SGC-style construct names; the trailing letter is the construct ID)
T6 sequence (Q8TF76 465-798): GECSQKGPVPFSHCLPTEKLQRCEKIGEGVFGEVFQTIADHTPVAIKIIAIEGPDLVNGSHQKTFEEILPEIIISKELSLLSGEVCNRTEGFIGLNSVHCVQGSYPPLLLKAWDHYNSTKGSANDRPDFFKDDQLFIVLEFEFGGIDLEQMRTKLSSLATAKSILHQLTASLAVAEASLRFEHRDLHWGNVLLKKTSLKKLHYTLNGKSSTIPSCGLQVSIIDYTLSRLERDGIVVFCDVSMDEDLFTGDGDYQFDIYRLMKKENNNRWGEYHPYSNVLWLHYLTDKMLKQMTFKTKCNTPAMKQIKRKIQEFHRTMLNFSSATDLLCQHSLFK

The target in the next test is T7, MAPK13A (Homo sapiens, UniProt O15264).
T7 construct: purchased in-house DSF kinase panel (SGC-style construct names; the trailing letter is the construct ID)
T7 sequence (O15264 1-365): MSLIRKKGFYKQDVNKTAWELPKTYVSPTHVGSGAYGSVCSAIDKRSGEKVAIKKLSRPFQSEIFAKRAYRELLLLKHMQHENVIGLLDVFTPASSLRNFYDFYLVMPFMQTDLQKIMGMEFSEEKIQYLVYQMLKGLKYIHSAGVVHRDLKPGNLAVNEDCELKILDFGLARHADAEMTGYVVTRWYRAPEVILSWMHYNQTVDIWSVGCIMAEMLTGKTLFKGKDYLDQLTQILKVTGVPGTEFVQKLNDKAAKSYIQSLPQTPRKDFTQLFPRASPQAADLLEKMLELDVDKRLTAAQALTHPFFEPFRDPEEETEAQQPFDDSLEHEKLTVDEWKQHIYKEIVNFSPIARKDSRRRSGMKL

The target in another test is T8, MAPK8B (Homo sapiens, UniProt P45983).
T8 construct: purchased in-house DSF kinase panel (SGC-style construct names; the trailing letter is the construct ID)
T8 sequence (P45983 1-364): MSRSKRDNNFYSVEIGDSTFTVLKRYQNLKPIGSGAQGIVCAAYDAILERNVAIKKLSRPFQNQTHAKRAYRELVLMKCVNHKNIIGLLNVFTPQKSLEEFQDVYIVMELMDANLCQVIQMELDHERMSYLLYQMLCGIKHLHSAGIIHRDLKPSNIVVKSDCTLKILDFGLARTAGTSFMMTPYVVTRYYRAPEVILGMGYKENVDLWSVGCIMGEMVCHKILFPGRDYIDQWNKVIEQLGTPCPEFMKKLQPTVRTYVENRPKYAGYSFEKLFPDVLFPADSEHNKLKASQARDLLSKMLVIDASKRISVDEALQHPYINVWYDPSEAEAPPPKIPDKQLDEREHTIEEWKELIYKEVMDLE

As to `O=C(NCc1ccccc1)Nc1ccc2cc1OCCOCCNc1ccn3ncc-2c3n1` [compound 16], the ΔTm at 10 µM on STK3 (STK3A) was determined as 5.9 °C; at CAMK2BA, 1.3 °C; on STK17BA, 1.3 °C; on DAPK1 (DAPK1A), 1.3 °C; at EPHB3A, 0.8 °C; at GSG2A, 0.5 °C. In addition, on MAPK13A, the ΔTm at 10 µM amounted to 0.1 °C.
`O=C(NCc1ccccc1Cl)Nc1ccc2cc1OCCOCCNc1ccn3ncc-2c3n1` [compound 17]: the ΔTm at 10 µM on STK3 (STK3A) is 6.2 °C; on CAMK2BA, 0.3 °C; at STK17BA it was 4.1 °C; at DAPK1 (DAPK1A) it was 0.1 °C; at EPHB3A, 0.3 °C; on GSG2A it was -0.3 °C. Further, the ΔTm at 10 µM at MAPK13A was 0.5 °C.
With `O=C(NCc1cccc(Cl)c1)Nc1ccc2cc1OCCOCCNc1ccn3ncc-2c3n1` [compound 18], the ΔTm at 10 µM was 8 °C at STK3 (STK3A); 0.8 °C at CAMK2BA; 2.4 °C on STK17BA; 0.3 °C on DAPK1 (DAPK1A); 0.2 °C at EPHB3A; 0 °C on GSG2A. Further, at MAPK13A, the ΔTm at 10 µM came out at 0.7 °C.
As for `O=C(NCc1ccc(Cl)cc1)Nc1ccc2cc1OCCOCCNc1ccn3ncc-2c3n1` [compound 19], the ΔTm at 10 µM was 6.7 °C at STK3 (STK3A); -0.1 °C on CAMK2BA; 1.2 °C on STK17BA; -0.1 °C at DAPK1 (DAPK1A); -0.1 °C on EPHB3A; -0.2 °C on GSG2A. Also, the ΔTm at 10 µM on MAPK13A was determined as 0.6 °C.
Take `O=C(NCc1ccc(Cl)cc1Cl)Nc1ccc2cc1OCCOCCNc1ccn3ncc-2c3n1` [compound 20]: the ΔTm at 10 µM at STK3 (STK3A) came to 8 °C; at CAMK2BA it was 1.6 °C; on STK17BA it was 2.8 °C; on DAPK1 (DAPK1A) it was 0.2 °C; on EPHB3A it was 0.1 °C; at GSG2A, 0 °C. The thermal shift (ΔTm) at 10 µM on MAPK13A came out at 0.4 °C.
Take `O=C(NCc1ccc(Cl)cc1F)Nc1ccc2cc1OCCOCCNc1ccn3ncc-2c3n1` [compound 21]: the ΔTm at 10 µM at STK3 (STK3A) is 6.9 °C; at CAMK2BA, 0.8 °C; at STK17BA, 2.7 °C; at DAPK1 (DAPK1A) it was 0.3 °C; on EPHB3A it was -0.4 °C; on GSG2A it was 0.1 °C. The ΔTm at 10 µM on MAPK13A is 0.6 °C.
Turning to `Cc1cc(Cl)ccc1CNC(=O)Nc1ccc2cc1OCCOCCNc1ccn3ncc-2c3n1` [compound 23], the ΔTm at 10 µM was 9.1 °C on STK3 (STK3A); 0.9 °C on CAMK2BA; 3.3 °C on STK17BA; 0.1 °C on DAPK1 (DAPK1A); 0.9 °C at EPHB3A; -0.1 °C at GSG2A. Also, the ΔTm at 10 µM on MAPK13A is 0.3 °C.
For the compound `Cc1cc(Br)ccc1CNC(=O)Nc1ccc2cc1OCCOCCNc1ccn3ncc-2c3n1` [compound 24], the ΔTm at 10 µM at STK3 (STK3A) is 3.8 °C; on CAMK2BA, -0.2 °C; at STK17BA, 3.6 °C; on DAPK1 (DAPK1A) it was -0.3 °C; at EPHB3A, 0.7 °C; on GSG2A, 0 °C. In addition, the ΔTm at 10 µM on MAPK13A is -0.4 °C; on MAPK8B, 0.6 °C.
For `Cc1ccc(F)cc1CNC(=O)Nc1ccc2cc1OCCOCCNc1ccn3ncc-2c3n1` [compound 26], the ΔTm at 10 µM was determined as 4.1 °C on STK3 (STK3A); 0 °C at CAMK2BA; 3.1 °C at STK17BA; 0.2 °C on DAPK1 (DAPK1A); 0.9 °C at EPHB3A; 0.6 °C on GSG2A. For the same compound, the figures for the ΔTm at 10 µM on MAPK13A and on MAPK8B were -0.2 °C and 0.5 °C, respectively.
As for `O=C(NCc1ccccc1C(F)(F)F)Nc1ccc2cc1OCCOCCNc1ccn3ncc-2c3n1` [compound 27], the ΔTm at 10 µM on STK3 (STK3A) was 4.7 °C; at CAMK2BA, -0.1 °C; at STK17BA, 5.1 °C; on DAPK1 (DAPK1A) it was 0.1 °C; on EPHB3A, 1.4 °C; on GSG2A, 0.7 °C. Also, the values for the thermal shift (ΔTm) at 10 µM at MAPK13A and at MAPK8B were -0.5 °C and 0.5 °C, respectively.
Consider `O=C(NCc1ccc(C(F)(F)F)cc1)Nc1ccc2cc1OCCOCCNc1ccn3ncc-2c3n1` [compound 28], for which the ΔTm at 10 µM at STK3 (STK3A) amounted to 5.1 °C; on CAMK2BA it was 0.3 °C; on STK17BA it was 4.8 °C; at DAPK1 (DAPK1A) it was 0.4 °C; at EPHB3A it was 1.4 °C; at GSG2A, 0.9 °C. The ΔTm at 10 µM at MAPK13A is -0.5 °C; at MAPK8B, 0.9 °C.
For the compound `COc1ccccc1CNC(=O)Nc1ccc2cc1OCCOCCNc1ccn3ncc-2c3n1` [compound 29], the ΔTm at 10 µM on STK3 (STK3A) was 3.4 °C; at CAMK2BA, -0.2 °C; at STK17BA, 1.7 °C; on DAPK1 (DAPK1A) it was -0.1 °C; on EPHB3A it was 0.4 °C; at GSG2A, 0.6 °C. Further, the ΔTm at 10 µM is 0.02 °C on MAPK13A and 1.1 °C at MAPK8B.
For `COc1cccc(CNC(=O)Nc2ccc3cc2OCCOCCNc2ccn4ncc-3c4n2)c1` [compound 30], the ΔTm at 10 µM on STK3 (STK3A) is 3.7 °C; on CAMK2BA, -0.2 °C; on STK17BA, 1.8 °C; at DAPK1 (DAPK1A), 0.1 °C; on EPHB3A it was 0.3 °C; on GSG2A it was 0.7 °C. Besides, the ΔTm at 10 µM at MAPK13A is -0.1 °C; on MAPK8B it was 1.2 °C.
Take `COc1ccc(CNC(=O)Nc2ccc3cc2OCCOCCNc2ccn4ncc-3c4n2)cc1` [compound 31]: the ΔTm at 10 µM was 4.4 °C on STK3 (STK3A); -0.1 °C on CAMK2BA; 2.6 °C on STK17BA; 0.3 °C on DAPK1 (DAPK1A); 0.8 °C on EPHB3A; 1.2 °C at GSG2A. Further, the ΔTm at 10 µM on MAPK13A was -1.3 °C; at MAPK8B, 1.1 °C.
In the case of `CN1CCN(C(=O)Nc2ccc3cc2OCCOCCNc2ccn4ncc-3c4n2)CC1` [compound 35], the ΔTm at 10 µM on STK3 (STK3A) amounted to 3.3 °C; at CAMK2BA, 0.6 °C; at STK17BA, 3.4 °C; at DAPK1 (DAPK1A), 0.7 °C; on EPHB3A, 0.6 °C; on GSG2A, 1.3 °C. Also, the ΔTm at 10 µM on MAPK13A stood at 0.4 °C.
